Test results as given in ChEMBL document CHEMBL1126840, “Steroidal affinity labels of the estrogen receptor. 1. 17 alpha-(Bromoacetoxy)alkyl/alkynylestradiols” (J Med Chem, 1993).

Assays:
[1] = target: T1, Estrogen receptor (Ovis aries) (UniProt P49885+Q9TU15)
[2] = target: T1, Estrogen receptor (Ovis aries); remark: listed apart in the source
[3] = target: T1, Estrogen receptor (Ovis aries); remark: listed apart in the source

RAC app [1] | RAC app [2] | RAC app [3] | SMILES
0.28 | 1.1 | 0.024 | C[C@]12CC[C@@H]3c4ccc(O)cc4CC[C@H]3[C@@H]1CC[C@@]2(O)CCCO
3.4 | 6.5 | 0.4 | C[C@]12CC[C@@H]3c4ccc(O)cc4CC[C@H]3[C@@H]1CC[C@@]2(O)C#CCCCCCCO
0.21 | 0.94 | 0.021 | C[C@]12CC[C@@H]3c4ccc(O)cc4CC[C@H]3[C@@H]1CC[C@@]2(O)CCCOC(=O)CBr
0.79 | 2 | 0.066 | C[C@]12CC[C@@H]3c4ccc(O)cc4CC[C@H]3[C@@H]1CC[C@@]2(O)C#CCCOC(=O)CBr
1.3 | 12 | 0.044 | C[C@]12CC[C@@H]3c4ccc(O)cc4CC[C@H]3[C@@H]1CC[C@@]2(O)CC1CO1 (stereo in doubt; 6a)
1 | 3.9 | 0.07 | C[C@]12CC[C@@H]3c4ccc(O)cc4CC[C@H]3[C@@H]1CC[C@@]2(O)C#CCCO
0.2 | 3.9 | < 0.017 | C[C@]12CC[C@@H]3c4ccc(O)cc4CC[C@H]3[C@@H]1CC[C@@]2(O)CC1CO1 (stereo in doubt; 6b)
1.5 | 2.4 | 0.24 | C[C@]12CC[C@@H]3c4ccc(O)cc4CC[C@H]3[C@@H]1CC[C@@]2(O)C#CCCCCCCOC(=O)CBr
